Test system: HeLa cells
Experiment: Evaluation of ability to permeate cell membrane (uptake into cells, flow cytometry of Alexa Fluor 647 fluorescence)
Format: cell-based
Settings: 1.5 μM sample solution, 37° C., 1 hour; ratio to fluorescent dye 1
Experimental: A DMSO solution of the synthesized peptide fluorescent conjugates 1, 4, and 5, and fluorescent dye 1 was diluted using a DMEM low-glucose culture solution to a concentration of 1.5 μM, the concentration of the DMSO contained was adjusted to 0.15%, and the resulting solution was used as a sample solution for a cell membrane permeability test.
HeLa cells were seeded in a 96-well cell culture plate 24 hours before peptide treatment (0.5×10^5 cells/well).
The medium of HeLa cells pre-cultured at 37° C. for 24 hours was replaced with a sample solution of the peptide fluorescent conjugates 1, 4, and 5 and the fluorescent dye 1, and the ability to permeate a cell membrane after culturing at 37° C. for 1 hour was evaluated. […] The collected cells were analyzed by flow cytometry (guava easyCyte (trademark) 8) measuring red 2 fluorescence (661/15 nm) for detecting the fluorescent dye (Alexa Fluor647) introduced into the peptide fluorescent conjugate.
Using sample solutions of the peptide fluorescent conjugates 1 and 2, TAT-Alexa, and the fluorescent dye 1 prepared in the same manner as in Test Example 1, the red 2 fluorescence (661/15 nm) was measured and analyzed by flow cytometry by the same procedure as in Test Example 1. […]

## TAT-Alexa: Alexa Fluor 647 C2 Maleimide added to the terminal Cys of Cys-TAT(47-57), commercially available cell-penetrating peptide (YGRKKRRQRRR; N-terminal Cys with Alexa Fluor 647; C-terminal amide; printed: Tyr-Gly-Arg-Lys-Lys-Arg-Arg-Gln-Arg-Arg-Arg-)
  average value of the fluorescence intensities of Alexa Fluor 647 in cells (MFI) relative to cells treated with the fluorescent dye 1: about double

From patent publication US20240287131A1, “PEPTIDE” (AGC Inc., priority 2021, published 2024)
